Measured values: the NIST ThermoML archive (doi:10.1021/acs.jced.9b00846)

Conditions: Liquid, Vibrating tube method

CCC(C)CC [3-methylpentane]
Conditions | mass density [kg/m3]
283.15 K, 96 kPa | 673.7
283.15 K, 4984 kPa | 678.4
283.15 K, 9983 kPa | 682.9
283.15 K, 14976 kPa | 687.2
283.15 K, 20022 kPa | 691.2
283.15 K, 25054 kPa | 695
283.15 K, 29951 kPa | 698.6
283.15 K, 35044 kPa | 702.1
283.15 K, 40019 kPa | 705.4
283.15 K, 45032 kPa | 708.6
283.15 K, 50012 kPa | 711.7
283.15 K, 54940 kPa | 714.6
283.15 K, 59937 kPa | 717.5
283.15 K, 64969 kPa | 720.3
288.15 K, 123 kPa | 669.3
288.15 K, 4981 kPa | 674.1
288.15 K, 10014 kPa | 678.9
288.15 K, 14991 kPa | 683.2
288.15 K, 19942 kPa | 687.3
288.15 K, 25033 kPa | 691.3
288.15 K, 29989 kPa | 695
288.15 K, 35037 kPa | 698.6
288.15 K, 39987 kPa | 701.9
288.15 K, 45029 kPa | 705.2
288.15 K, 50061 kPa | 708.4
288.15 K, 54941 kPa | 711.3
288.15 K, 59951 kPa | 714.3
288.15 K, 65035 kPa | 717.1
293.15 K, 98 kPa | 664.7
293.15 K, 4913 kPa | 669.7
293.15 K, 9979 kPa | 674.6
293.15 K, 14916 kPa | 679.1
293.15 K, 19985 kPa | 683.5
293.15 K, 24964 kPa | 687.5
293.15 K, 30011 kPa | 691.3
293.15 K, 34951 kPa | 694.9
293.15 K, 40003 kPa | 698.4
293.15 K, 45015 kPa | 701.8
293.15 K, 49957 kPa | 705
293.15 K, 54949 kPa | 708.1
293.15 K, 60008 kPa | 711.1
293.15 K, 65001 kPa | 714
298.15 K, 123 kPa | 660.1
298.15 K, 4936 kPa | 665.3
298.15 K, 9999 kPa | 670.4
298.15 K, 15031 kPa | 675.1
298.15 K, 20036 kPa | 679.5
298.15 K, 25016 kPa | 683.7
298.15 K, 29992 kPa | 687.6
298.15 K, 34973 kPa | 691.3
298.15 K, 40043 kPa | 694.9
298.15 K, 45008 kPa | 698.3
298.15 K, 49987 kPa | 701.6
298.15 K, 54938 kPa | 704.8
298.15 K, 59982 kPa | 707.8
298.15 K, 65001 kPa | 710.8
303.15 K, 106 kPa | 655.4
303.15 K, 4970 kPa | 660.9
303.15 K, 9996 kPa | 666.1
303.15 K, 15043 kPa | 671.1
303.15 K, 20006 kPa | 675.6
303.15 K, 25024 kPa | 679.9
303.15 K, 29956 kPa | 683.9
303.15 K, 34990 kPa | 687.7
303.15 K, 39963 kPa | 691.4
303.15 K, 44991 kPa | 694.9
303.15 K, 49940 kPa | 698.2
303.15 K, 54932 kPa | 701.5
303.15 K, 59961 kPa | 704.6
303.15 K, 65012 kPa | 707.7
308.15 K, 109 kPa | 650.6
308.15 K, 4967 kPa | 656.3
308.15 K, 10001 kPa | 661.8
308.15 K, 14988 kPa | 666.8
308.15 K, 19945 kPa | 671.5
308.15 K, 25037 kPa | 676
308.15 K, 29968 kPa | 680.1
308.15 K, 35020 kPa | 684
308.15 K, 39963 kPa | 687.8
308.15 K, 44985 kPa | 691.4
308.15 K, 49992 kPa | 694.8
308.15 K, 54921 kPa | 698.1
308.15 K, 60008 kPa | 701.4
308.15 K, 64999 kPa | 704.4
313.15 K, 117 kPa | 645.9
313.15 K, 4981 kPa | 651.9
313.15 K, 9993 kPa | 657.5
313.15 K, 15145 kPa | 662.9
313.15 K, 20027 kPa | 667.6
313.15 K, 25088 kPa | 672.2
313.15 K, 30012 kPa | 676.4
313.15 K, 35003 kPa | 680.4
313.15 K, 40042 kPa | 684.3
313.15 K, 45054 kPa | 688
313.15 K, 49996 kPa | 691.5
313.15 K, 54926 kPa | 694.8
313.15 K, 60053 kPa | 698.2
313.15 K, 65063 kPa | 701.3
318.15 K, 107 kPa | 641.1
318.15 K, 4955 kPa | 647.4
318.15 K, 9991 kPa | 653.3
318.15 K, 15039 kPa | 658.8
318.15 K, 20021 kPa | 663.7
318.15 K, 25060 kPa | 668.4
318.15 K, 29991 kPa | 672.8
318.15 K, 34997 kPa | 676.9
318.15 K, 40044 kPa | 680.9
318.15 K, 44936 kPa | 684.6
318.15 K, 49998 kPa | 688.3
318.15 K, 55010 kPa | 691.7
318.15 K, 59996 kPa | 695.1
318.15 K, 65008 kPa | 698.3
323.15 K, 106 kPa | 636.3
323.15 K, 4980 kPa | 642.9
323.15 K, 9966 kPa | 649
323.15 K, 15009 kPa | 654.6
323.15 K, 20016 kPa | 659.8
323.15 K, 24987 kPa | 664.6
323.15 K, 30019 kPa | 669.1
323.15 K, 34996 kPa | 673.3
323.15 K, 40041 kPa | 677.4
323.15 K, 44988 kPa | 681.2
323.15 K, 49949 kPa | 684.9
323.15 K, 55004 kPa | 688.5
323.15 K, 59997 kPa | 691.8
323.15 K, 64995 kPa | 695.1
328.15 K, 4974 kPa | 638.3
328.15 K, 9983 kPa | 644.6
328.15 K, 14977 kPa | 650.4
328.15 K, 20010 kPa | 655.8
328.15 K, 25021 kPa | 660.8
328.15 K, 29956 kPa | 665.4
328.15 K, 34961 kPa | 669.7
328.15 K, 40039 kPa | 673.9
328.15 K, 45005 kPa | 677.9
328.15 K, 50036 kPa | 681.7
328.15 K, 54981 kPa | 685.2
328.15 K, 60023 kPa | 688.7
328.15 K, 65018 kPa | 692
333.15 K, 4969 kPa | 633.7
333.15 K, 9932 kPa | 640.2
333.15 K, 15031 kPa | 646.3
333.15 K, 19959 kPa | 651.8
333.15 K, 25022 kPa | 657
333.15 K, 29983 kPa | 661.7
333.15 K, 34948 kPa | 666.1
333.15 K, 39982 kPa | 670.4
333.15 K, 45015 kPa | 674.5
333.15 K, 49968 kPa | 678.3
333.15 K, 54981 kPa | 682
333.15 K, 59935 kPa | 685.5
333.15 K, 65077 kPa | 689
338.15 K, 5021 kPa | 629
338.15 K, 10019 kPa | 635.9
338.15 K, 15009 kPa | 642.1
338.15 K, 20030 kPa | 647.8
338.15 K, 25053 kPa | 653.1
338.15 K, 29999 kPa | 658
338.15 K, 34951 kPa | 662.6
338.15 K, 39974 kPa | 667
338.15 K, 45053 kPa | 671.2
338.15 K, 49966 kPa | 675.1
338.15 K, 54970 kPa | 678.8
338.15 K, 59984 kPa | 682.5
338.15 K, 65015 kPa | 685.9
343.15 K, 5000 kPa | 624.2
343.15 K, 10002 kPa | 631.4
343.15 K, 15025 kPa | 637.8
343.15 K, 20016 kPa | 643.7
343.15 K, 24973 kPa | 649.1
343.15 K, 29947 kPa | 654.2
343.15 K, 34977 kPa | 658.9
343.15 K, 39962 kPa | 663.4
343.15 K, 44924 kPa | 667.6
343.15 K, 50034 kPa | 671.8
343.15 K, 54984 kPa | 675.6
343.15 K, 59973 kPa | 679.3
343.15 K, 65018 kPa | 682.9
348.15 K, 4999 kPa | 619.4
348.15 K, 10005 kPa | 626.9
348.15 K, 15001 kPa | 633.6
348.15 K, 19997 kPa | 639.7
348.15 K, 24983 kPa | 645.3
348.15 K, 30044 kPa | 650.6
348.15 K, 34962 kPa | 655.3
348.15 K, 40008 kPa | 660
348.15 K, 44956 kPa | 664.3
348.15 K, 50006 kPa | 668.4
348.15 K, 54987 kPa | 672.4
348.15 K, 59977 kPa | 676.1
348.15 K, 65005 kPa | 679.8
353.15 K, 4969 kPa | 614.4
353.15 K, 9927 kPa | 622.1
353.15 K, 14990 kPa | 629.2
353.15 K, 20018 kPa | 635.5
353.15 K, 25032 kPa | 641.3
353.15 K, 29979 kPa | 646.6
353.15 K, 34952 kPa | 651.6
353.15 K, 39962 kPa | 656.4
353.15 K, 44947 kPa | 660.8
353.15 K, 49917 kPa | 665
353.15 K, 55013 kPa | 669.1
353.15 K, 59927 kPa | 672.9
353.15 K, 65026 kPa | 676.6
358.15 K, 4945 kPa | 609.3
358.15 K, 9952 kPa | 617.5
358.15 K, 15000 kPa | 624.7
358.15 K, 20004 kPa | 631.3
358.15 K, 25020 kPa | 637.3
358.15 K, 29990 kPa | 642.7
358.15 K, 34993 kPa | 647.8
358.15 K, 40000 kPa | 652.7
358.15 K, 44971 kPa | 657.2
358.15 K, 49932 kPa | 661.5
358.15 K, 54965 kPa | 665.6
358.15 K, 59980 kPa | 669.6
358.15 K, 65056 kPa | 673.4
363.15 K, 5004 kPa | 604.2
363.15 K, 9965 kPa | 612.8
363.15 K, 15052 kPa | 620.5
363.15 K, 19925 kPa | 627.1
363.15 K, 25013 kPa | 633.3
363.15 K, 29929 kPa | 638.9
363.15 K, 35008 kPa | 644.2
363.15 K, 39979 kPa | 649.1
363.15 K, 45062 kPa | 653.9
363.15 K, 50011 kPa | 658.2
363.15 K, 54995 kPa | 662.4
363.15 K, 60039 kPa | 666.4
363.15 K, 65041 kPa | 670.2
